Test results taken from patent US7258861B2, “TNF-derived peptides for use in treating oedema” (Innogenetics N.V., priority 2001, dated 2007).
Where “and” joins values, the source holds several entries; their conditions need not be identical. Identical values can stand only once.

How the values were obtained:
[1] = system: ex vivo instilled rat lung; assay: Ex vivo rat flooded lung, model of hydrostatic edema
Description: In this model edema is induced by instillating 2 ml of 0.9% NaCl solution intratracheally. Alternatively, edema formation can be modulated by varying the height of the venous outflow and the perfusion buffer containing reservoir, or alternatively by varying the time the lung is exposed to the elevated pressure. […] The clearance of alveolar fluid from the lung is calculated by means of measuring the concentration of HSA, which is added to the instillate over time. Alternatively, the over time weight loss as a measure of edema resorption (high weight loss is high liquid clearance), of the artificially instilled lung can be measured. The lung tidal volume, compliance and weight are monitored continuously during the experiment. At the end of the experiment bronchoalveolar fluid and supernatant of lung homogenate is taken for measurement of inflammatory mediators.
The lungs of female Wistar rats (weight 200–250 g; Harlan-Winkelmann, Borchen, Germany) are prepared after terminal i.p. anesthesia by 160 mg/kg pentobarbitural —Na (Merial Ltd, Halbermoos, Germany) and perfused as described by Uhlig and Wolin (1994), and by Uhlig and von Bethmann (1997). All equipment is obtained from Hugo Sachs Electronics (March-Hugstetten, Germany). […] As perfusion medium, a Krebs-Henseleit buffer (38° C.) containing 2% bovine serum albumin (Fraction V, Scrva. Heidelberg, Germany), 0.1% glucose (Riedel-de-Haën Inc., Seelze, Germany), and 0.3% HEPES (ICN Biomedicals Inc., Ohio, USA) is used. The total amount of recirculating buffer is 100 ml. The lungs are suspended by the trachea and ventilated by negative pressure ventilation (inspiratory pressure: −7 cm H2O, expiratory pressure: −2 cm H2O) with 80 breaths per minute resulting in a tidal volume of approximately 2 ml. Every 5 minutes, a deep inspiratory breath (−20 cm H2O) is performed. Artificial thorax chamber pressure is measured with a differential pressure transducer (Validyne DP 45-14), and an air flow velocity with a pneumotachograh tube (Fleisch Type 0000) connected to a differential pressure transducer (Validyne DP 45-15). The perfusate flow (Narcomatic RT-500) and the arterial and venous pressure (Statham P23BB) are continuously monitored. The pH of the perfusate before entering the lung is kept at 7.25 to 7.35 by automatic bubbling of the buffer with CO2 as soon as the pH exceeds this range. A weight transducer is integrated into the chamber lid which allows the continuous assessment of lung weight. Data are recorded on a Pentium II computer using the Mathlab Sofware package (Mathworks, Inc., Nattick Mass., USA). For lung mechanics, the data are analyzed by applying the following formula: P=1/C*VT+RLdV/dT
Where P is chamber pressure, C pulmonary compliance, VT tidal volume, and RL airway resistance. All lung physiology parameters were normalized to time point 0, i.e. after the end of the preconditioning perfusion of 40 minutes.

[2] = system: resident peritoneal macrophages from mice deficient in both TNF receptor-1 and -2; assay: Whole-cell patch clamp in resident peritoneal macrophages of TNFR1/2-deficient mice; type: cell-based, mouse; details: cells lacking TNF receptors
From the text: Animals, cells and reagents. Male CBA/J or C57BL/6 mice, as well as male TNFR ½^0/0 C57BL/6 mice deficient in TNF receptors (Bruce et al., 1996) provided by H. Bluethmann, F. Hoffmann-La Roche, Basel, Switzerland, were used at the age of 8–10 weeks. Their care was in accordance with institutional guidelines. Lung microvascular endothelial cells were isolated from CBA/J mice and characterized as described (Jackson et al., 1990) using magnetic beads (Dynabeads M-450, Dynal, Oslo, Norway), covalently bound to a purified rat-anti-mouse PECAM-1 monoclonal antibody (donated by B. Imhof, University of Geneva). Microvascular lung endothelial cells were resuspended in DMEM containing 2 mM L-glutamine, 100 U/ml penicillin, […], 20% FCS, 40 U/ml heparin and […] endothelial cell growth supplement (Brunschwig Chemie, Basel, Switzerland). For patch clamp experiments, cells were plated onto 35×10 mm easy grip Petri dishes (Beckton Dickinson, Plymouth, UK), pre-coated with 0.2% gelatin (Sigma, Buchs, Switzerland). Resident peritoneal macrophages, isolated in ice cold RPMI containing antibiotics and 10 U/ml Heparin, were left to adhere onto 35×10 mm easy grip Petri dishes for 4 h, after which the non-adherent cells were removed. […]
Electrophysiology. […] Currents were recorded with an Axopatch-200A amplifier (Axon Instrument Inc, Foster City, Calif., USA), low pass-filtered at 1 kHz. […]

normal rats = details: instillation in normal rats, over 1 hour; cited from earlier work

## TNF: E.coli-derived recombinant murine TNF
[1]; after intratracheal instillation, summary in words
  clearing alveolar fluid content ex vivo: capable of clearing alveolar fluid content
[1]; recombinant TNF 5 μg/lung alone, listed as mTNF
  Weight loss of ex vivo instilled rat lung over 80 min: 589 mg and 722 mg and 584 mg
[2]
  whole cell current: induced a voltage-dependent current
Normal rats
  increase of alveolar liquid clearance: 43%
